Measurements from patent publication US20100310478A1, “SUBSTITUTED BENZOQUINONES AND HYDROQUINONES IN THE TREATMENT OF PERIODONTAL DISEASES” (priority 2007, published 2010).
In brackets after ≈: the same amount, converted by molar mass. Like-named read-outs stand apart in the source and are kept apart here.

Experiments:
[1] = test system: P. gingivalis NCTC 11834; experiment: Minimum bactericidal concentration (MBC) assay; assay type: cell-based, Porphyromonas gingivalis
Experimental: P. gingivalis strains were cultured and maintained on Wilkins-Chalgren Anaerobe Medium (agar and broth) at pH 7.0; all cultures were incubated anaerobically at 37° C. for 5-7 days.
(§1) This assay, normally carried out after an MIC assay, determines the minimum concentration of a compound that is lethal to the micro-organism being tested.
(§2) These samples were then individually sub-cultured on antibiotic-free agar medium, under the incubation conditions described above. Following incubation they were examined visually for microbial growth.
(§3) The ratio of MIC to MBC should ideally be as close to 1 as possible.

[2] = test system: S. mutans ATCC 25175; experiment: Minimum inhibitory concentration (MIC) assay; assay type: cell-based, Streptococcus mutans
Experimental: (§4) S. mutans was cultured and maintained on Wilkins-Chalgren Anaerobe Medium (agar and broth) at pH 7.0 supplemented with 1 g/L glucose; all cultures were incubated at 37° C. for 48 hours in an atmosphere containing 5% CO2. For the formation of biofilms in biofilm disruption assays, however, S. mutans was grown in brain-heart infusion broth supplemented with 5% sucrose. This is a standard international method for quantitatively assessing the antimicrobial activity of a compound in a liquid medium. The method used a sterile 96-well microtitre plate, capable of holding about 200 μl of liquid per well. […] The culture medium was as described above. The wells were inoculated with a liquid suspension of freshly grown micro-organism and incubated under the conditions described above. After incubation, the microtitre plate was examined visually (with the aid of a light box) for cloudiness in each well, which would indicate microbial growth. The MIC value was recorded as the lowest concentration of test compound required to inhibit microbial growth, ie the lowest concentration for which the liquid in the well remained clear. The assays were conducted in duplicate (minimum) and included both negative (culture medium with no micro-organisms) and positive (culture medium plus diluting solvent plus micro-organism) controls.

[3] = test system: S. mutans ATCC 25175; experiment: Minimum bactericidal concentration (MBC) assay; assay type: cell-based, Streptococcus mutans
Experimental: S. mutans was cultured and maintained on Wilkins-Chalgren Anaerobe Medium (agar and broth) at pH 7.0 supplemented with 1 g/L glucose; all cultures were incubated at 37° C. for 48 hours in an atmosphere containing 5% CO2. For the formation of biofilms in biofilm disruption assays, however, S. mutans was grown in brain-heart infusion broth supplemented with 5% sucrose.
as §1, §2, §3

[4] = test system: P. gingivalis NCTC 11834; experiment: Minimum inhibitory concentration (MIC) assay; assay type: cell-based, Porphyromonas gingivalis
Experimental: as §4, with “P. gingivalis strains were cultured and” for “S. mutans was cultured and”, “at pH 7.0; all cultures” for “at pH 7.0 supplemented with 1 g/L glucose; all cultures”, “were incubated anaerobically at 37°” for “were incubated at 37°”, “C. for 5-7 days. This is” for “C. for 48 hours in an atmosphere containing 5% CO2. For the formation of biofilms in biofilm disruption assays, however, S. mutans was grown in brain-heart infusion broth supplemented with 5% sucrose. This is”

[5] = test system: S. mutans ATCC 25175 biofilm; experiment: Biofilm disruption assay on hydroxyapatite discs; assay type: cell-based, Streptococcus mutans; details: 0.2% (w/v)
Experimental: (§5) This assay was designed to determine quantitatively the relative potency of a test compound to disrupt (effectively kill) biofilms formed by a test organism on hydroxyapatite (HA) discs. Biofilms were formed on sterile dense ceramic HA discs 7 mm diameter×1.8 mm thick (Clarkson Chromatography) by placing the discs in the appropriate liquid media (as described above) inoculated with the test organism (0.5×10^8 cfu/ml). The HA discs were then incubated at 37° C. for ˜48 hours in a 5% CO2 atmosphere (for S. mutans ATCC 25175) or ˜96 hours under anaerobic conditions (for P. gingivalis 381). Following the incubation period the supernatant was removed from the wells containing the HA discs and the discs were washed x3 with fresh media to ensure all planktonic cells were removed. The HA discs were then transferred to sterile bijoux bottles containing 1 ml of phosphate buffered saline (PBS) plus test compound(s) at the required concentration. After a set time period (usually 2 and/or 5 min), the HA disc was transferred to another sterile bijoux containing 1 ml of fresh growth media. Adherent cells were then harvested by vigorous vortexing for 2 minutes. A sample was then taken, serially diluted 10-fold in fresh growth media and inoculated onto agar plates in triplicate. Untreated HA discs, and HA discs added to PBS containing only the solvents used to dissolve the test compound(s), acted as controls. The plates were then incubated as described above and subsequently examined visually for growth. Colonies were counted at an appropriate serial dilution (5-50 individual colonies visible) with the aid of a colony counter. These measurements were then converted to numbers of colony forming units (cfu), using the formula: cfu/ml=number of colonies×serial dilution factor×100 (as only a 10 μl sample was taken). These cfu values were then converted into log10 values and plotted graphically against time of sample removal. At each time point, samples were assessed in triplicate; the final cfu/ml value was an average (mean) of the three readings. Biofilm disruption assays, as described above, were carried out using TBHQ as the test compound and chlorhexidine as a positive control. The negative control was 5% ethanol. For these experiments, the TBHQ and chlorhexidine were tested at concentrations of 0.2% w/v. The TBHQ was dissolved in ethanol and the chlorhexidine in distilled water. All the experiments were conducted in triplicate.

[6] = test system: P. gingivalis NCTC 11834; experiment: Short-contact kill assay (SCKA); assay type: cell-based, Porphyromonas gingivalis; details: 0.2% (w/v)
Experimental: (§6) This quantitative assay was designed to determine the relative potency of a test compound or combination of test compounds to kill a test micro-organism over a short-contact time period (up to 5 minutes).
(§7) Samples from a culture of micro-organisms (ca. 1×10^8 cfu/ml) prepared in phosphate buffered saline (PBS) containing the relevant test compound(s) were taken at timed intervals (between 0 and 5 minutes), 10-fold serially diluted in PBS and then inoculated onto agar plates in triplicate. A culture containing only the solvent(s) used to dissolve the test compound(s) acted as a control for the assay (maximum solvent load 2.5% v/v).
(§8) The plates were then incubated as described above and subsequently examined visually for growth. Colonies were counted at an appropriate serial dilution (5-50 individual colonies visible) with the aid of a colony counter. These measurements were then converted to numbers of colony forming units (cfu), using the formula: cfu/ml=number of colonies×serial dilution factor×100 (as only a […] was taken).
(§9) These cfu values were then converted into […] values and plotted graphically against time of sample removal.
(§10) At each time point, samples were assessed in triplicate; the final cfu/ml value was an average (mean) of the three readings.
(§11) SCKAs, as described above, were carried out using TBHQ as the test compound. Chlorhexidine was used as a positive control and 2.5% ethanol as a negative control.
(§12) For the SCKA experiments, the TBHQ and chlorhexidine were both tested at concentrations of 0.2% w/v. The TBHQ was dissolved in ethanol and the chlorhexidine in distilled water. All the experiments were conducted in triplicate.

[7] = test system: P. gingivalis 381 biofilm; experiment: Biofilm disruption assay on hydroxyapatite discs; assay type: cell-based, Porphyromonas gingivalis; details: 0.2% (w/v)
Experimental: as §5

[8] = test system: S. mutans ATCC 25175; experiment: Short-contact kill assay (SCKA); assay type: cell-based, Streptococcus mutans; details: 0.2% (w/v)
Experimental: as §6, §7, §8, §9, §10, §11, §12

[9] = test system: Escherichia coli ATCC 25922; experiment: MBC assay; assay type: cell-based
Experimental: as §1, §2

[10] = test system: Klebsiella pneumoniae ATCC 700603; experiment: MBC assay; assay type: cell-based
Experimental: as §1, §2

[11] = test system: Pseudomonas aeruginosa ATCC 27853; experiment: MBC assay; assay type: cell-based
Experimental: as §1, §2

[12] = test system: Acinetobacter baumanni ATCC 19606; experiment: MBC assay; assay type: cell-based
Experimental: as §1, §2

[13] = 1 min, 3.00 = limit of detection
[14] = 5 min, 2.00 = limit of detection
[15] = 0.5 min, 3.00 = limit of detection

Row | Structure (SMILES) | MIC ([2]; Table 8) [µg/mL] | MIC ([4]; Table 7) [µg/mL] | MBC ([1]; Table 7) [µg/mL] | MBC ([3]; Table 8) [µg/mL] | MIC/MBC ratio ([3]; Table 8) | MIC/MBC ratio ([1]; Table 7) | MIC/MBC ratio ([1]; Tables 1, 2) | Viable cell counts ([5]; 0 min) [Log10 cfu/ml] | Viable cell counts ([5]; 2 min) [Log10 cfu/ml] | Viable cell counts ([5]; 5 min) [Log10 cfu/ml] | Viable cell counts ([6]; 0 min) [Log10 cfu/ml] | Viable cell counts ([6]; 0.5 min) | Viable cell counts [6, 13] | MIC/MBC ratio ([3]; Tables 1, 2) | Viable cell counts ([7]; 0 min) [Log10 cfu/ml] | Viable cell counts ([7]; 2 min) [Log10 cfu/ml] | Viable cell counts [7, 14] | Viable cell counts ([8]; 0 min) [Log10 cfu/ml] | Viable cell counts [8, 15] | Viable cell counts [8, 13] | also measured
1 | CC(C)(C)C1=CC(=O)C=CC1=O [2-t-butyl-p-benzoquinone] | 31.2 (≈ 190 µM) | < 0.49 | < 0.49 | 62.5 (≈ 381 µM) | 0.5 |  |  |  |  |  |  |  |  |  |  |  |  |  |  |  | 
2 | [H]/N=C(\N/C(=N/[H])NCCCCCCNC(=N)NC(=N)Nc1ccc(Cl)cc1)Nc1ccc(Cl)cc1 [CHX, chlorhexidine, reference compound] |  |  |  |  |  |  | 1 | 6.36 | 5.00 | 5.21 | 9.29 | *3.00 Log10 cfu/ml | *3.00 Log10 cfu/ml | 0.5 | 7.74 | 6.08 | 6.29 Log10 cfu/ml | 8.05 | *3.00 Log10 cfu/ml | *3.00 Log10 cfu/ml | MBC ([1]; Porphyromonas gingivalis, NCTC11834, Tables 1, 2, read-out: MBC): 0.98 µg/mL (≈ 1.94 µM); MIC ([2]; Streptococcus mutans, ATCC25175, Tables 1, 2, read-out: MIC): 0.625 µg/mL (≈ 1.24 µM); MBC ([3]; Streptococcus mutans, ATCC25175, Tables 1, 2, read-out: MBC): 1.25 µg/mL (≈ 2.47 µM); MIC ([4]; Porphyromonas gingivalis, NCTC11834, Tables 1, 2, read-out: MIC): 0.98 µg/mL (≈ 1.94 µM)
3 | CC(C)(C)c1cc(O)ccc1O [TBHQ, t-butyl-p-hydroquinone] |  |  |  |  |  |  | 0.5 | 6.36 | 6.52 | 6.24 | 9.32 | 6.50 Log10 cfu/ml | *3.00 Log10 cfu/ml | 1 | 7.74 | 6.52 | *2.00 Log10 cfu/ml | 7.64 | 7.56 Log10 cfu/ml | 7.36 Log10 cfu/ml | MBC ([1]; Tables 1, 2): 0.98 µg/mL (≈ 5.9 µM); MIC ([2]; Tables 1, 2): 31.25 µg/mL (≈ 188 µM); MBC [9]: 500 µg/mL (≈ 3010 µM); MBC [10]: 1000 µg/mL (≈ 6020 µM); MBC [11]: > 1000 µg/mL; MBC [12]: 500 µg/mL (≈ 3010 µM); MBC ([3]; Tables 1, 2): 31.25 µg/mL (≈ 188 µM); MIC ([4]; Tables 1, 2): 0.49 µg/mL (≈ 2.95 µM)
4 | CC1=CC(=O)C(C(C)C)=CC1=O [Thymoquinone, thymoquinone] | 3.9 (≈ 23.8 µM) | 0.49 (≈ 2.98 µM) | 0.98 (≈ 5.97 µM) | > 250 | <0.0156 | 0.5 |  |  |  |  |  |  |  |  |  |  |  |  |  |  | 

Further lines, with some results ahead:

Row | MIC ([2]; Table 8) [µg/mL] | MIC ([4]; Table 7) [µg/mL] | Structure (SMILES) | MBC ([1]; Table 7) [µg/mL] | MBC ([3]; Table 8) [µg/mL] | MIC/MBC ratio ([3]; Table 8) | MIC/MBC ratio ([1]; Table 7) | MIC/MBC ratio ([1]; Tables 1, 2) | Viable cell counts ([5]; 0 min) [Log10 cfu/ml] | Viable cell counts ([5]; 2 min) [Log10 cfu/ml] | Viable cell counts ([5]; 5 min) [Log10 cfu/ml] | Viable cell counts ([6]; 0 min) [Log10 cfu/ml] | Viable cell counts ([6]; 0.5 min) | Viable cell counts [6, 13] | MIC/MBC ratio ([3]; Tables 1, 2) | Viable cell counts ([7]; 0 min) [Log10 cfu/ml] | Viable cell counts ([7]; 2 min) [Log10 cfu/ml] | Viable cell counts [7, 14] | Viable cell counts ([8]; 0 min) [Log10 cfu/ml] | Viable cell counts [8, 15] | Viable cell counts [8, 13] | also measured
5 | 31.2 (≈ 161 µM) | 3.9 (≈ 20.1 µM) | CCCCCCc1ccc(O)cc1O [4-hexyl resorcinol] | 7.8 (≈ 40.1 µM) | 125 (≈ 643 µM) | 0.25 | 0.5 |  |  |  |  |  |  |  |  |  |  |  |  |  |  | 
6 | 1.95 (≈ 11.7 µM) | < 0.49 | Cc1cc(O)c(C(C)C)cc1O [Thymohydroquinone, thymohydroquinone] | 0.98 (≈ 5.9 µM) | 250 (≈ 1500 µM) | 0.008 | <0.5 |  |  |  |  |  |  |  |  |  |  |  |  |  |  | 
